Results taken from US8507479B2, “Aminodihydrothiazine derivatives substituted with a cyclic group” (Shionogi & Co., Ltd., priority 2007, dated 2013).
Where two headings read alike, the source gives them in different places.

Target: Recombinant human BACE-1 (Homo sapiens (Human), UniProt P56817)
Test: Assay of β-secretase-inhibiting activity;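 further: enzyme cleavage of a biotinylated, Europium cryptate-labelled peptide substrate, incubated 3 h at 30 °C, then probed with Streptavidin-XL665 in KF-containing phosphate buffer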
Type: biochemical
[1] = substrate peptide 18 nM, BACE-1 7.4 nM, pH 5.0, 30° C., 3 hours, read-out: IC50 values

Recombinant human BACE-1, sequence (P56817 46-501): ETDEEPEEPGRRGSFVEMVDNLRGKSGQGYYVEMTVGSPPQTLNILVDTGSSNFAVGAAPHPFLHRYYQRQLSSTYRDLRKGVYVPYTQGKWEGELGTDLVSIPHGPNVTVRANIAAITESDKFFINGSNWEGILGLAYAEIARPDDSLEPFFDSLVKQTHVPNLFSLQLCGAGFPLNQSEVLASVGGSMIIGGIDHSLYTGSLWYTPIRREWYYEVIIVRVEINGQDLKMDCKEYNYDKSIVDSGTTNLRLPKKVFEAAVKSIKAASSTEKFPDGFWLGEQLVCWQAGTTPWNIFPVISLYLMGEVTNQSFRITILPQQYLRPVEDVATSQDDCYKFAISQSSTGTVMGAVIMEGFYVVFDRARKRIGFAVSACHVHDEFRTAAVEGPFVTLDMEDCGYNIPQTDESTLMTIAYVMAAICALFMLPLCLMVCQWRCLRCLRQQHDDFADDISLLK

Compound | IC50 [1] [µM] | further results
C[C@@]1(c2cc(NC(=O)c3cn4ccccc4n3)ccc2F)CCSC(N)=N1 [Compound 502] | ≤ 1 | 
Cc1cn2cc(C(=O)Nc3ccc(F)c([C@]4(C)CCSC(N)=N4)c3)ncc2n1 [Compound 652] | ≤ 1 | 
Cc1cnc(C(=O)Nc2ccc(F)c([C@@]3(C)N=C(N)SCC3(F)F)c2)cn1 [Compound 662] | ≤ 1 | 
C[C@]1(c2cc(NC(=O)c3ncccc3F)ccc2F)N=C(N)SCC1(F)F [Compound 660] | ≤ 1 | 
Cc1nc(C(=O)Nc2ccc(F)c([C@@]3(C)N=C(N)SCC3(F)F)c2)co1 [Compound 664] | ≤ 1 | 
CC1(C)C[C@@](C)(c2cc(NC(=O)c3coc(Cl)n3)ccc2F)N=C(N)S1 [Compound 645] | ≤ 1 | 
COCCOc1cnc(C(=O)Nc2cc(F)c(F)c([C@]3(C)CCSC(N)=N3)c2)cn1 [Compound 148] | ≤ 1 | 
C[C@@]1(c2cc(NC(=O)c3cnc(N=NN)cn3)ccc2F)CCSC(N)=N1 [Compound 79] | ≤ 1 | 
CCCCc1ccc(C(=O)Nc2ccc(F)c([C@@]3(C)N=C(N)SCC3(F)F)c2)nc1 [Compound 665] | ≤ 1 | 
Cc1nc(C(=O)Nc2ccc(F)c([C@]3(C)CCSC(N)=N3)c2)cs1 [Compound 505] | ≤ 1 | 
Cc1nc(Br)sc1C(=O)Nc1cccc([C@]2(C)CCSC(N)=N2)c1 [Compound 6] | ≤ 1 | 
Cc1nc(C(=O)Nc2cncc([C@]3(C)CCSC(N)=N3)c2)c(C)o1 [Compound 461] | ≤ 1 | 
Cc1cnn(-c2cnc(C(=O)Nc3ccc(F)c([C@]4(C)CCSC(N)=N4)c3)cn2)c1 [Compound 577] | ≤ 1 | 
Cc1nc(C)c(C(=O)Nc2cccc([C@]3(C)CCSC(N)=N3)c2)s1 [Compound 8] | ≤ 1 | 
C[C@@]1(c2cc(NC(=O)c3ccc(OCC(N)=O)cn3)ccc2F)CCSC(N)=N1 [Compound 559] | ≤ 1 | 
COc1nc(C(=O)Nc2ccc(F)c([C@]3(C)CCSC(N)=N3)c2)co1 [Compound 667] | ≤ 1 | 
Cc1cnc(C(=O)Nc2ccc(F)c([C@@]3(C)N=C(N)SCC34CC4)c2)cn1 [Compound 674] | ≤ 1 | 
Cc1cnc(C(=O)Nc2cccc([C@]3(C)CCSC(N)=N3)c2)cn1 [Compound 563] | ≤ 1 | 
CC1(C)C[C@@](C)(c2cc(NC(=O)c3ccc(O)cn3)ccc2F)N=C(N)S1 [Compound 650] | ≤ 1 | 
Cc1cc(C(=O)Nc2ccc(F)c([C@]3(C)CCSC(N)=N3)c2)n(C(C)(C)C)n1 [Compound 538] | ≤ 1 | 

Compound | IC50 [1] [µM] | further results
C[C@@]1(c2cc(NC(=O)c3ccc(OCC#CCN)cn3)ccc2F)CCSC(N)=N1 [Compound 566] | ≤ 1 | 
C[C@@]1(c2cc(NC(=O)c3coc(C(F)(F)F)n3)ccc2F)CCSC(N)=N1 [Compound 669] | ≤ 1 | 
CC(=O)c1ccc(C(=O)Nc2ccc(F)c([C@]3(C)CCSC(N)=N3)c2)s1 [Compound 530] | ≤ 1 | 
C[C@@]1(c2cccc(N/C(=N/O)c3ncc(Cl)cc3Cl)c2)CCSC(N)=N1 [Compound 26] |  | IC50 (Recombinant human BACE-1, Table 139, read-out: IC50): 4.85 µM
Cc1nc(C(=O)Nc2cccc([C@]3(C)CCSC(N)=N3)c2)cs1 [Compound 10] | ≤ 1 | 
COc1cnc(C(=O)Nc2cccc([C@]3(C)CCSC(N)=N3)c2)c(N)n1 [Compound 29] | ≤ 1 | 
CC1(c2cc(NC(=O)c3cnc(Cl)cn3)ccc2Br)CCSC(N)=N1 (stereo not shown) [Compound 517] | ≤ 1 | 
Cn1nc(Cl)cc1C(=O)Nc1cncc([C@]2(C)CCSC(N)=N2)c1 [Compound 478] | ≤ 1 | 
C[C@@]1(c2cc(NC(=O)c3cnc(-c4ccsc4)cn3)ccc2F)CCSC(N)=N1 [Compound 537] | ≤ 1 | 
Cc1cnc(C(=O)Nc2cc([C@]3(C)CCSC(N)=N3)c3oc(C)cc3c2)cn1 [Compound 468] | ≤ 1 | 
C[C@@]1(c2cc(NC(=O)c3cnc(NCC#N)cn3)ccc2F)CCSC(N)=N1 [Compound 701] |  | IC50 (Recombinant human BACE-1, same assay, table, read-out: IC50): 0.2 µM
C[C@@]1(c2cncc(NC(=O)c3cnc(Cl)cn3)c2)CCSC(N)=N1 [Compound 597] | ≤ 1 | 
C[C@@]1(c2ccnc(NC(=O)c3ccc(Cl)cn3)c2)CCSC(N)=N1 [Compound 598] | ≤ 1 | 
COc1cnc(C(=O)Nc2ccc(F)c([C@@]3(C)N=C(N)SCC3=O)c2)cn1 [Compound 689] | ≤ 1 | 
CC1(C)C[C@@](C)(c2cc(NC(=O)c3ncccc3F)ccn2)N=C(N)S1 [Compound 655] | ≤ 1 | 
Cc1nc(C(=O)Nc2ccnc([C@]3(C)CC(C)(C)SC(N)=N3)c2)co1 [Compound 654] | ≤ 1 | 
C[C@@]1(c2cc(NC(=O)c3ncc(O)cc3F)ccc2F)CCSC(N)=N1 [Compound 491] | ≤ 1 | 
C[C@@]1(c2cccc(NC(=O)c3ccc(Cl)cn3)n2)CCSC(N)=N1 [Compound 599] | ≤ 1 | 
Cc1nc(C(=O)Nc2ccc(F)c([C@@]3(C)N=C(N)SCC3(C)C)c2)co1 [Compound 648] | ≤ 1 | 
CC1(C)C[C@@](C)(c2cccc(NC(=O)c3ccc(C#N)cn3)c2)N=C(N)S1 [Compound 696] | ≤ 1 | 
